Laboratory results reported in patent US12527849B2, “Apparatus for determining administration form of a composition of an engineered virus-based nanoparticle for a treatment of an autoimmune condition” (Diamante Srl, priority 2021, dated 2026).

How the values were obtained:
Assay type in all cases: in vivo
Settings in all cases: Dexamethasone oral 1 mg/kg, 20 times between day 28 and 57
[1] = system: IL-12p70; assay: Pro-inflammatory cytokines in sera of CIA Collagen mice (ELISA, day 58): IL-12p70
Protocol: (§1) Critical administration 124 disclosed herein is further described below. Q5D represents administration 5 days a part. TBSV·pLIp1 and wt TBSV shown in Table 1 may include liquid form that are not sterile and stored in −20° C. TBSV·pLIp1 may be given at the dose of 50 μG/100 μL Male DBA/1J mice (8 weeks; Envigo, Italy) may be used for these studies. Mice may be housed in individual cages (two for each group) and maintained under a 12:12 light-dark cycle at 21° C.±1° C. and 50%±5% humidity. The animals may be acclimated to their environment for 1 week and had ad libitum access to tap water and standard rodent diet. All animal experiments may be complied with regulations in Italy (D.M. 116192), Europe (O.J of E.C. L 358/112/18/1986), and the United States (Animal Welfare Assurance Number A5594-01, Department of Health and Human Services, USA). […] Arthritis was assessed by using qualitative severity score system and hind paw volume (mL) measured by a plethysmometer on day 20, 22, 24, 26, 28, 30, 32, 34, 36, 38, 40, 42, 44, 46 48, 50, 52, 54, 56 and 58. Body weight was recorded on day 0, 6, 13, 16, 18, 20, 22, 24, 26, 28, 30, 32, 34, 36, 38, 40, 42, 44, 46, 50, 52, 54, 56 and 58. […]

[2] = system: IFN-γ; assay: Pro-inflammatory cytokines in sera of CIA Collagen mice (ELISA, day 58): IFN-γ
Protocol: as §1

[3] = system: TNF-α; assay: Pro-inflammatory cytokines in sera of CIA Collagen mice (ELISA, day 58): TNF-α
Protocol: as §1

C[C@@H]1C[C@H]2[C@@H]3CCC4=CC(=O)C=C[C@]4(C)[C@@]3(F)[C@@H](O)C[C@]2(C)[C@@]1(O)C(=O)CO [Dexamethasone, dexamethasone]
IL-12p70, % of reduction vs CIA Collagen [1]: 37.95%
IFN-γ, % of reduction vs CIA Collagen [2]: 37.39%
TNF-α, % of reduction vs CIA Collagen [3]: 12.02%
